#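 Results reflect a 48-hour exposure of cells in 96-well plates to compound at five concentrations. The concentration for 50% growth inhibition is given as GI50. TGI: total growth inhibition.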
# Tests used:
# Test in all cases: NCI tumour cell line growth inhibition, 48 h
# [1] = system: SR leukemia
# [2] = system: HL-60(TB) leukemia
# [3] = system: PC-3 prostate
# [4] = system: NCI-H522 lung
# [5] = system: UO-31 renal
# [6] = system: A498 renal
# [7] = system: OVCAR-8 ovarian
# [8] = system: RPMI-8226 leukemia
# [9] = system: TK-10 renal
# [10] = system: SK-MEL-5 melanoma
# [11] = system: COLO 205 colon
# [12] = system: MOLT-4 leukemia
# [13] = system: U251 CNS
# [14] = system: BT-549 breast
# [15] = system: T-47D breast
# [16] = system: NCI/ADR-RES ovarian
# [17] = system: M14 melanoma
# [18] = system: RXF 393 renal
# [19] = system: SNB-75 CNS
# [20] = system: SN12C renal
# [21] = system: HT29 colon
# [22] = system: SK-OV-3 ovarian
# [23] = system: UACC-62 melanoma
# [24] = system: SK-MEL-2 melanoma
# [25] = system: SK-MEL-28 melanoma
# [26] = system: CAKI-1 renal
# [27] = system: SNB-19 CNS
# [28] = system: EKVX NSCLC
# [29] = system: CCRF-CEM leukemia
# [30] = system: IGROV1 ovarian
# [31] = system: SF-295 CNS
# [32] = system: SW-620 colon
# [33] = system: HOP-92 NSCLC
# [34] = system: HOP-62 NSCLC
# [35] = system: A549 NSCLC
# [36] = system: DU-145 prostate
# [37] = system: OVCAR-4 ovarian
# [38] = system: 786-0 renal
# [39] = system: ACHN renal
# [40] = system: NCI-H23 lung
# [41] = system: KM12 colon
# [42] = system: UACC-257 melanoma
# [43] = system: MDA-MB-231 breast
# [44] = system: MALME-3M melanoma
# [45] = system: HCT-116 colon
# [46] = system: SF-268 CNS
# [47] = system: NCI-H226 lung
# [48] = system: OVCAR-5 ovarian
# [49] = system: HS 578T breast
# [50] = system: MDA-MB-435
# [51] = system: K-562 leukemia
# [52] = system: HCT-15 colon
# [53] = system: NCI-H460 lung
# [54] = system: MCF7 breast
# [55] = system: OVCAR-3 ovarian
# [56] = system: LOX IMVI melanoma
# [57] = system: SF-539 CNS
structure (smiles),measurement,setting,value
O=C(COc1cccc(/C=C2\COc3ccccc3C2=O)c1)c1ccccc1,GI50,[1],2.17 µM
same,TGI,[1],6.66 µM
same,GI50,[2],5.85 µM
same,TGI,[2],29.2 µM
same,GI50,[3],2.11 µM
same,TGI,[3],5.16 µM
same,GI50,[4],1.81 µM
same,TGI,[4],3.79 µM
same,GI50,[5],1.77 µM
same,TGI,[5],3.26 µM
same,GI50,[6],0.266 µM
same,TGI,[6],6.78 µM
same,GI50,[7],3.35 µM
same,TGI,[7],11.2 µM
same,GI50,[8],1.84 µM
same,TGI,[8],4.85 µM
same,GI50,[9],3.6 µM
same,TGI,[9],11.2 µM
same,GI50,[10],2.83 µM
same,TGI,[10],7.63 µM
same,GI50,[11],2.93 µM
same,TGI,[11],10.3 µM
same,GI50,[12],3.26 µM
same,TGI,[12],11.1 µM
same,GI50,[13],1.65 µM
same,TGI,[13],3.03 µM
same,GI50,[14],5.3 µM
same,TGI,[14],22.2 µM
same,GI50,[15],2.53 µM
same,TGI,[15],6.04 µM
same,GI50,[16],3.26 µM
same,TGI,[16],11.8 µM
same,GI50,[17],3.12 µM
same,TGI,[17],14 µM
same,GI50,[18],2.48 µM
same,TGI,[18],9.29 µM
same,GI50,[19],11.5 µM
same,TGI,[19],24.7 µM
same,GI50,[20],4.7 µM
same,TGI,[20],19.8 µM
same,GI50,[21],2.04 µM
same,TGI,[21],4.5 µM
same,GI50,[22],15.2 µM
same,TGI,[22],29 µM
same,GI50,[23],3 µM
same,TGI,[23],10.2 µM
same,GI50,[24],2.75 µM
same,TGI,[24],9.68 µM
same,GI50,[25],3.24 µM
same,TGI,[25],10.7 µM
same,GI50,[26],3.32 µM
same,TGI,[26],12.7 µM
same,GI50,[27],11.8 µM
same,TGI,[27],24 µM
same,GI50,[28],7.98 µM
same,TGI,[28],20.6 µM
same,GI50,[29],1.98 µM
same,TGI,[29],7.62 µM
same,GI50,[30],2.18 µM
same,TGI,[30],3.96 µM
same,GI50,[31],1.93 µM
same,TGI,[31],15.8 µM
same,GI50,[32],1.66 µM
same,TGI,[32],3.83 µM
same,GI50,[33],2.94 µM
same,TGI,[33],16.8 µM
same,GI50,[34],5.24 µM
same,TGI,[34],18.2 µM
same,GI50,[35],15.7 µM
same,TGI,[35],49.7 µM
same,GI50,[36],6.11 µM
same,TGI,[36],17.4 µM
same,GI50,[37],3.84 µM
same,TGI,[37],15.4 µM
same,GI50,[38],5.85 µM
same,TGI,[38],19 µM
same,GI50,[39],2.14 µM
same,TGI,[39],5.18 µM
same,GI50,[40],4.47 µM
same,TGI,[40],16.1 µM
same,GI50,[41],1.92 µM
same,TGI,[41],3.65 µM
same,GI50,[42],6.03 µM
same,TGI,[42],18.6 µM
same,GI50,[43],10.6 µM
same,TGI,[43],22.9 µM
same,GI50,[44],13.1 µM
same,TGI,[44],28.2 µM
same,GI50,[45],2.12 µM
same,TGI,[45],4.08 µM
same,GI50,[46],3.23 µM
same,TGI,[46],10.2 µM
same,GI50,[47],12.3 µM
same,TGI,[47],25.4 µM
same,GI50,[48],2.8 µM
same,TGI,[48],7.23 µM
same,GI50,[49],2.34 µM
same,TGI,[49],> 100 µM
same,GI50,[50],3.14 µM
same,TGI,[50],10.7 µM
same,GI50,[51],2.05 µM
same,TGI,[51],5.65 µM
same,GI50,[52],1.85 µM
same,TGI,[52],4.45 µM
same,GI50,[53],12.3 µM
same,TGI,[53],24.9 µM
same,GI50,[54],1.98 µM
same,TGI,[54],4.27 µM
same,GI50,[55],2.39 µM
same,TGI,[55],5.12 µM
same,GI50,[56],1.66 µM
same,TGI,[56],3.12 µM
same,GI50,[57],15.6 µM
same,TGI,[57],29 µM

# Reference: PubChem BioAssay (NCI)
